The values that follow come from PMC10123100, “Single-molecule visualization of stalled replication-fork rescue by the Escherichia coli Rep helicase” (Nucleic Acids Research, 2023).

Test [1] concerns the target T1, Rep helicase (His6-Rep WT) (Escherichia coli, UniProt P09980).
T1 construct: full-length with His6 tag kept, plasmid pZX2198, expressed in E. coli BL21(DE3)/pLysS; monomer, multimer on long ssDNA
The test is described as follows: SPR, nucleotide-stimulated dissociation of Rep from immobilised dT35. The format is binding. The note with it: 200 uM ATP, 20 nM Rep, biotinylated dT35, Mg2+, pH 7.6, 20 C. On the technique in general: Surface plasmon resonance follows binding to a sensor surface in real time, without labels.

Test [2] has as its target T1, Rep helicase (His6-Rep WT). The test is described as above. The test is classed as binding. The note with it: 200 uM ATP, 20 nM Rep, biotinylated dT35, Mg2+, pH 7.6, 20 C. The source holds these as a separate data set.

T1 sequence (P09980 whole entry): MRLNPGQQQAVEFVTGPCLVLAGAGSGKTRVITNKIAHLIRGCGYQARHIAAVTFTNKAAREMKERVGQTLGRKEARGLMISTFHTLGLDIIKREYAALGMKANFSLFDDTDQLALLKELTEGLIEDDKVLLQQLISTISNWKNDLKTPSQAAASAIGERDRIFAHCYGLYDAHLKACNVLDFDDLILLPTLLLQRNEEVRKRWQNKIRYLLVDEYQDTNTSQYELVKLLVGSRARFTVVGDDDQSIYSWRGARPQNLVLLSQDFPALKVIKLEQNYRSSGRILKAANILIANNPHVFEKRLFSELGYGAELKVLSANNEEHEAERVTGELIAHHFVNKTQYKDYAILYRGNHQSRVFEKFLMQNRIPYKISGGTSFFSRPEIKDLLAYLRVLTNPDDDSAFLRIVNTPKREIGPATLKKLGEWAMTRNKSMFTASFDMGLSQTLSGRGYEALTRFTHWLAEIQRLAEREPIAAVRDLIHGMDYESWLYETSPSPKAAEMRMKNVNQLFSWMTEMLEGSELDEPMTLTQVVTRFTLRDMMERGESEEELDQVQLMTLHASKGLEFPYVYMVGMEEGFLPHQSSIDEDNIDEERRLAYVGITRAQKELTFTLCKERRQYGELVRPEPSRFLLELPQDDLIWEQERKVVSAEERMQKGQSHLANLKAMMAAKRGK

As to `Nc1ncnc2c1ncn2[C@@H]1O[C@H](COP(=O)(O)OP(=O)(O)OP(=O)(O)O)[C@@H](O)[C@H]1O` [ATP], the “SPR, nucleotide-stimulated dissociation of Rep from immobilised dT35” value was “ATP, but not ADP or AMP-PNP, stimulated the dissociation of Rep WT and Rep ΔC33” in test [1]; “ATP, but not ADP or AMP-PNP, stimulated the dissociation of Rep WT and Rep ΔC33” in test [2].
